The source of these data is article PMC6026642 (Frontiers in Chemistry, 2018).

Read-outs that look alike come from different tables or passages of the source. No end group written: not given here.

The conditions of series [1]: rat, in vivo, 2 mg/kg.
The next series in a line: in vivo. To be noted: both, Wistar, rat, 2 mg/kg.
For the next series, the system named is PRV. Type of series: cell-based, pseudorabies virus. The following applies: TCID50 based, R = A2/A1 × 100%; 50 μg/ml peptide (method says 50 μM, 1 h incubation); Vero and PK-15 cells; mean.
A further series concerns PEDV. Type of series: cell-based, porcine epidemic diarrhea virus.

In the case of FFHHIFRGIVHVGKTIHRLVTG [Piscidin 1], in series [1], the “AUC0−∞” value stood at 78.40 ± 8.64 µg·h/g, the “CLb (body clearance)” value is 0.433 ± 0.13 mL/min/kg, the peak concentration (Cmax) came to 1.67 ± 0.19 µg/g and the “Ke (elimination rate constant)” value amounted to 0.034 ± 0.06 h⁻¹. In series [1], the MRT is listed as 36.45 ± 2.45 h; the “Ratio of AUC0−∞, ileum content / serum” value came out at 4.14; the “Ratio of CLb, ileum content / serum” value is listed as 0.273; the “Ratio of Cmax, ileum content / serum” value was determined as 0.71. Also, in series [1], the “Ratio of Ke, ileum content / serum” value turned out to be 1.17; the “Ratio of MRT, ileum content / serum” value is on record as 1.21; the “Ratio of T1/2, ileum content / serum” value came to 0.858; the “Ratio of Tmax, ileum content / serum” value is recorded as 24.38. Moreover, in series [1], the “T1/2 (elimination half-life)” value was 20.16 ± 1.76 h and the Tmax is on record as 8.12 ± 1.02 h. Moreover, in “in vivo” (im), the AUC(0-inf) is 19000 ± 1370 ng·h/mL, the Cmax came to 2370 ± 160 ng/mL, the MRT amounted to 30.1 ± 2.46 h and the Tmax amounted to 0.333 ± 0.151 h. In “in vivo” (im), the bioavailability stood at 73.2% and the half-life was 23.5 ± 2.43 h. In “in vivo” (iv), this sequence gave an AUC(0-inf) of 25900 ± 3210 ng·h/mL, an MRT of 22.8 ± 2.43 h, a clearance of 1.12 mL/min/kg and a half-life of 17 ± 1.43 h. Also, in “in vivo” (po), the AUC(0-inf) is 9630 ± 870 ng·h/mL, the Cmax worked out at 730 ± 80 ng/mL, the MRT amounted to 26.8 ± 2.89 h and the Tmax was 0.5 ± 0.23 h. In “in vivo” (po), this sequence had a bioavailability of 37.2% and a half-life of 19.5 ± 1.67 h.

As to “FKCRRWQWRM KKLGAPSITC VRRAF [lactoferricin]”, the “virus survived ratio of PRV” value in the series with PRV came to 82%. In the series on PEDV, the “virus survived ratio of PEDV” value was found to be 93%.
